# System: Her2
# Experiment: Degradation of Her2 in BT-474 cells (Method 1, SDS-PAGE/immunoblot)
# Format: cell-based, Human
# Conditions: 0.5 μM, overnight
# Experimental: Human high-Her2 breast carcinoma BT474 (HTB-20), SK-BR-3 (HTB-30) and MCF-7 breast carcinoma (HTB-22) from American Type Culture Collection, VA, USA are grown in Dulbecco's modified Eagle's medium with 4 mM L-glutamine and antibiotics (100 IU/ml penicillin and 100 ug/ml streptomycine; GibcoBRL). To obtain exponential cell growth, cells are trypsinized, counted and seeded at a cell density of 0.5×10^6 cells/ml regularly, every 3 days. All experiments are performed on day 1 after cell passage.
# BT-474 cells are treated with 0.5 μM, 2 μM, or 5 μM of 17AAG (a positive control) or 0.5 μM, 2 μM, or 5 μM of a compound of the invention overnight in DMEM medium. After treatment, each cytoplasmic sample is prepared from 1×10^6 cells by incubation of cell lysis buffer (#9803, cell Signaling Technology) on ice for 10 minutes. The resulting supernatant used as the cytosol fractions is dissolved with sample buffer for SDS-PAGE and run on a SDS-PAGE gel, blotted onto a nitrocellulose membrane by using semi-dry transfer. Non-specific binding to nitrocellulose is blocked with 5% skim milk in TBS with 0.5% Tween at room temperature for 1 hour, then probed with anti-Her2/ErB2 mAb (rabbit IgG, #2242, Cell Signaling) and anti-Tubulin (T9026, Sigma) as housekeeping control protein. […]
structure (smiles),measurement,value
C=CCNC1=C2C[C@@H](C)C[C@H](OC)[C@H](O)[C@@H](C)/C=C(\C)[C@H](OC(N)=O)[C@@H](OC)/C=C\C=C(/C)C(=O)NC(=CC1=O)C2=O [17AAG],degradation of Her2,partial degradation

# Source: patent US8629285B2, “Imidazole compounds that modulate HSP90 activity” (Synta Pharmaceuticals Corp., priority 2005, dated 2014)
